This passage reports EC50, Ratio and Viability results from ChEMBL document CHEMBL1130760, “Anti-malarial activities of acylated bruceolide derivatives” (Bioorg Med Chem Lett, 1998).

Where “and” joins values, the source holds several entries; their conditions need not be identical. Equal entries are not always repeated.

For test [1], the system named is FM3A. The test can be described thus: Cytotoxicity against FM3A cells derived from a mammary tumor in mice was evaluated. The test is classed as functional, cell-based. As to conditions: Mus musculus.
In test [2] the test system is Plasmodium falciparum. Nature of the test: Anti-malarial activity as growth inhibition of chloroquine-resistant Plasmodium falciparum. Type of test: functional, organism-based.
The test system of test [3] is FM3A. Nature of the test: Selective toxicity against Plasmodium falciparum compared to FM3A cytotoxicity. Type of test: functional.
Test [4] has as its system FM3A. The test can be described thus: […] was evaluated by the percent viability of cells. The test is classed as functional, Mus musculus.

For orientation: EC50 means the concentration needed to bring the measured effect to its halfway point. Lower therefore signals a more potent agent. With `COC(=O)[C@@]12OC[C@]34[C@H]([C@@H](O)[C@@H]1O)[C@@]1(C)CC(=O)C(OC(=O)c5ccccc5)=C(C)[C@@H]1C[C@H]3OC(=O)[C@H](OC(=O)c1ccccc1)[C@@H]24`, the EC50 is 400 nM in test [1] and > 1000 nM in test [2] (Plasmodium falciparum).
Turning to `COC(=O)[C@@]12OC[C@]34[C@H]([C@@H](O)[C@@H]1O)[C@@]1(C)CC(=O)C(OC(=O)C(N)Cc5ccccc5)=C(C)[C@@H]1C[C@H]3OC(=O)[C@H](OC(=O)C(N)Cc1ccccc1)[C@@H]24` (some centres undefined), the 50% effective concentration (EC50) in test [1] is > 15000 nM; in test [2] (Plasmodium falciparum) it was 2800 nM. Besides, the Ratio in test [3] was >5.4.
Turning to `CCCCCCCCCC(=O)OC1=C(C)[C@@H]2C[C@H]3OC(=O)[C@H](OC(=O)CCCCCCCCC)[C@H]4[C@]5(C(=O)OC)OC[C@]34[C@H]([C@@H](O)[C@@H]5O)[C@@]2(C)CC1=O`, the EC50 is < 160 nM in test [1] and 390 nM in test [2] (Plasmodium falciparum).
Turning to `COC(=O)[C@@]12OC[C@]34[C@H]([C@@H](O)[C@@H]1O)[C@@]1(C)CC(=O)C(OC(C)=O)=C(C)[C@@H]1C[C@H]3OC(=O)[C@H](OC(C)=O)[C@@H]24`, the concentration for a half-maximal effect (EC50) in test [1] is 16000 nM; in test [2] (Plasmodium falciparum) it was 39 nM. Besides, in test [3], the Ratio is recorded as 410.
Turning to `CCCCCC(=O)OC1=C(C)[C@@H]2C[C@H]3OC(=O)[C@H](O)[C@H]4[C@]5(C(=O)OC)OC[C@]34[C@H]([C@@H](O)[C@@H]5O)[C@@]2(C)CC1=O`, the EC50 in test [1] and in test [2] (Plasmodium falciparum) was 1000 nM each time.
For the compound `C/C=C(\C)C(=O)OC1=C(C)[C@@H]2C[C@H]3OC(=O)[C@H](OC(=O)/C(C)=C/C)[C@H]4[C@]5(C(=O)OC)OC[C@]34[C@H]([C@@H](O)[C@@H]5O)[C@@]2(C)CC1=O`, the EC50 in test [1] is > 16000 nM; in test [2], > 1000 nM and 16000 nM. Moreover, the Viability in test [4] is on record as 100%.
For `COC(=O)[C@@]12OC[C@]34[C@H]([C@@H](O)[C@@H]1O)[C@@]1(C)CC(=O)C(OC(=O)/C=C/c5ccccc5)=C(C)[C@@H]1C[C@H]3OC(=O)[C@H](OC(=O)/C=C/c1ccccc1)[C@@H]24`, the results for the 50% effective concentration (EC50) in test [1] and in test [2] (Plasmodium falciparum) were < 150 nM and 82 nM, respectively.
As for `C/C=C(/C)C(=O)OC1=C(C)[C@@H]2C[C@H]3OC(=O)[C@H](OC(=O)/C(C)=C\C)[C@H]4[C@]5(C(=O)OC)OC[C@]34[C@H]([C@@H](O)[C@@H]5O)[C@@]2(C)CC1=O`, the values for the EC50 in test [1] and in test [2] (Plasmodium falciparum) were 6000 nM and 700 nM, respectively. Also, in test [3], the Ratio amounted to 9.
As to `CCC(=O)O[C@H]1C(=O)O[C@@H]2C[C@H]3C(C)=C(O)C(=O)C[C@]3(C)[C@H]3[C@@H](O)[C@H](O)[C@@]4(C(=O)OC)OC[C@]32[C@@H]14`, the EC50 in test [1] was found to be 7000 nM; in test [2] (Plasmodium falciparum), 29 nM. In addition, the Ratio in test [3] is 241.
In the case of `CCCCCC(=O)OC1=C(C)[C@@H]2C[C@H]3OC(=O)[C@H](OC(=O)CCCCC)[C@H]4[C@]5(C(=O)OC)OC[C@]34[C@H]([C@@H](O)[C@@H]5O)[C@@]2(C)CC1=O`, the EC50 is < 170 nM in test [1] and 98 nM in test [2] (Plasmodium falciparum).
In the case of `CCCCCCCCCCCCCCCC(=O)OC1=C(C)[C@@H]2C[C@H]3OC(=O)[C@H](OC(=O)CCCCCCCCCCCCCCC)[C@H]4[C@]5(C(=O)OC)OC[C@]34[C@H]([C@@H](O)[C@@H]5O)[C@@]2(C)CC1=O`, the Viability in test [4] is listed as 89.9%. Moreover, the half-maximal effective concentration (EC50) in test [2] (Plasmodium falciparum) was determined as 16000 nM.
Consider `COC(=O)[C@@]12OC[C@]34[C@H]([C@@H](O)[C@@H]1O)[C@@]1(C)CC(=O)C(OC(=O)C(N)C(C)C)=C(C)[C@@H]1C[C@H]3OC(=O)[C@H](OC(=O)C(N)C(C)C)[C@@H]24` (some centres undefined), for which the EC50 in test [1] is > 15000 nM; in test [2] (Plasmodium falciparum), 570 nM. In test [3], the Ratio is listed as >26.
For `CCCCCCCCCC(=O)OC1=C(C)[C@@H]2C[C@H]3OC(=O)[C@H](O)[C@H]4[C@]5(C(=O)OC)OC[C@]34[C@H]([C@@H](O)[C@@H]5O)[C@@]2(C)CC1=O`, the figures for the concentration for a half-maximal effect (EC50) in test [1] and in test [2] (Plasmodium falciparum) were 400 nM and > 1000 nM, respectively.
Regarding `COC(=O)[C@@]12OC[C@]34[C@H]([C@@H](O)[C@@H]1O)[C@@]1(C)CC(=O)C(OC(=O)C(C)N)=C(C)[C@@H]1C[C@H]3OC(=O)[C@H](OC(=O)C(C)N)[C@@H]24` (some centres undefined), the EC50 is > 16000 nM in test [1] and 1000 nM in test [2] (Plasmodium falciparum). Also, the Ratio in test [3] is reported as >16.
For `CCC(=O)OC1=C(C)[C@@H]2C[C@H]3OC(=O)[C@H](OC(=O)CC)[C@H]4[C@]5(C(=O)OC)OC[C@]34[C@H]([C@@H](O)[C@@H]5O)[C@@]2(C)CC1=O` the same measures were 6100 nM, 35 nM and 174.
On the same counts, the results for `COC(=O)[C@@]12OC[C@]34[C@H]([C@@H](O)[C@@H]1O)[C@@]1(C)CC(=O)C(O)=C(C)[C@@H]1C[C@H]3OC(=O)[C@H](OC(C)=O)[C@@H]24` [BRUCEINE B] are 8000 nM, 24 nM and 333.
On the same counts, the results for `COC(=O)[C@@]12OC[C@]34[C@H]([C@@H](O)[C@@H]1O)[C@@]1(C)CC(=O)C(O)=C(C)[C@@H]1C[C@H]3OC(=O)[C@H](O)[C@@H]24` [BRUCEOLIDE] are > 21000 nM, 1700 nM and >12.3.
